Tests used:
[1] = Inhibition of IDH2 R140Q mutant in human U-87 MG cells incubated for 72 hrs by measuring 2-HG production by fluorescence based analysis; assay type: functional, cell-based, U-87MG ATCC
[2] = biological target: Isocitrate dehydrogenase [NADP], mitochondrial (Homo sapiens, UniProt P48735, R140Q); experiment: Inhibition of IDH2 R140Q mutant (unknown origin) using alpha-ketoglutarate as substrate preincubated with compound for 16 hrs followed by substrate addition and measured after 1 hr in presence of NADPH by fluorescence based analysis
[3] = Apparent permeability across basolateral to apical side in human Caco-2 cells at 10 uM incubated for 1 hrs by LC-MS/MS analysis
[4] = Inhibition of IDH1 R132H mutant in human U-87 MG cells incubated for 72 hrs by measuring 2-HG production by fluorescence based analysis; assay type: functional, cell-based, U-87MG ATCC
[5] = Metabolic stability in male ICR mouse liver microsomes assessed as parent compound remaining at 1 uM measured after 30 mins in presence of NADPH by LC-MS analysis; assay type: ADME, Microsome; details: read-out: Stability
[6] = Metabolic stability in male SD rat liver microsomes assessed as parent compound remaining at 1 uM measured after 30 mins in presence of NADPH by LC-MS analysis; assay type: ADME, Microsome; details: Sprague-Dawley, read-out: Stability
[7] = Apparent permeability across apical to basolateral side in human Caco-2 cells at 10 uM incubated for 1 hrs by LC-MS/MS analysis

Sequence of Isocitrate dehydrogenase [NADP], mitochondrial (P48735 40-452 R140Q limits assumed): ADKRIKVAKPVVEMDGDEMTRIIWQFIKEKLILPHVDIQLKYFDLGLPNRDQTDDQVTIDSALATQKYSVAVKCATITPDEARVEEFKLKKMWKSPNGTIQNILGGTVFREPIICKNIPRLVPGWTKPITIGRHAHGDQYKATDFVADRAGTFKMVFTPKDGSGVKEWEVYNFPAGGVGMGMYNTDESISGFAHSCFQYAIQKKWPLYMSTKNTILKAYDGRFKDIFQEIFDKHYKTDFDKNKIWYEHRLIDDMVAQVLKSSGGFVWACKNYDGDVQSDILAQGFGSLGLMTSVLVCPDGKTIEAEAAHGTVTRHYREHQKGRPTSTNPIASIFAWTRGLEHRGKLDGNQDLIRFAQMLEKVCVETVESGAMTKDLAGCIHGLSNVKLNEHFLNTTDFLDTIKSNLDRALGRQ

SMILES | IC50 ([1]; Homo sapiens, U-87 MG, 72 h) | IC50 [2] | other results
COC1C=C(c2nc(N[C@H](C)C(F)(F)F)nc(N[C@H](C)C(F)(F)F)n2)CCC1 (stereo partly specified) | 2390 nM | 1030 nM | 
CC(C)Nc1nc(N[C@H](C)C(F)(F)F)nc(C2=C[C@@H](O)CCC2)n1 | 67 nM | 16 nM | Papp B→A at 1 h, 10 µM [3]: 34.1 ×10⁻⁶ cm/s; IC50 ([4]; Homo sapiens, U-87 MG, 72 h): 372 nM; remaining at 0.5 h, 1 µM [5]: 48.1%; remaining at 0.5 h, 1 µM [6]: 65%; Papp A→B at 1 h, 10 µM [7]: 55.4 ×10⁻⁶ cm/s
C=C(C)c1nc(NC(C)C)nc(N[C@H](C)C(F)(F)F)n1 | > 10000 nM | 710 nM | 
CNC1C=C(c2nc(N[C@H](C)C(F)(F)F)nc(N[C@H](C)C(F)(F)F)n2)CCC1 (stereo partly specified) |  | > 3000 nM | 
CC(C)Nc1nc(N[C@H](C)C(F)(F)F)nc(C2=CCCC2)n1 | 1420 nM | 83 nM | 
CC(C)Nc1nc(N[C@H](C)C(F)(F)F)nc(C2=CCCCC2)n1 | 413 nM | 21 nM | Papp B→A at 1 h, 10 µM [3]: 3.3 ×10⁻⁶ cm/s; remaining at 0.5 h, 1 µM [5]: 12.5%; remaining at 0.5 h, 1 µM [6]: 13.6%; Papp A→B at 1 h, 10 µM [7]: 0.9 ×10⁻⁶ cm/s
CC(C)Nc1nc(N[C@H](C)C(F)(F)F)nc(C2=CC(F)(F)CCC2)n1 | 504 nM | 23 nM | Papp B→A at 1 h, 10 µM [3]: 4 ×10⁻⁶ cm/s; Papp A→B at 1 h, 10 µM [7]: 2.2 ×10⁻⁶ cm/s
CC(C)Nc1nc(N[C@H](C)C(F)(F)F)nc(C2=C[C@H](O)CCC2)n1 | 999 nM | 794 nM | 
CC(C)Nc1nc(N[C@H](C)C(F)(F)F)nc(C2(c3ccccc3)CC2)n1 |  | 253 nM | 
CC(C)Nc1nc(N[C@H](C)C(F)(F)F)nc(C2=CCOCC2)n1 |  | 2340 nM | 
CC(C)Nc1nc(N[C@H](C)C(F)(F)F)nc(N2CCCCC2)n1 |  | > 3000 nM | 
CC(C)Nc1nc(N[C@H](C)C(F)(F)F)nc(C2=CCN(C)CC2)n1 |  | > 3000 nM | 
C[C@H](Nc1nc(N[C@H](C)C(F)(F)F)nc(C2=C(F)C(O)C(F)(F)CC2)n1)C(F)(F)F (stereo partly specified) | 156 nM | 166 nM | IC50 ([4]; Homo sapiens, U-87 MG, 72 h): 1030 nM
C[C@@H](Nc1nc(N[C@H](C)C(F)(F)F)nc(C2=C(F)[C@H](O)CCC2)n1)C(F)(F)F | 1020 nM |  | Papp B→A at 1 h, 10 µM [3]: 26 ×10⁻⁶ cm/s; IC50 ([4]; Homo sapiens, U-87 MG, 72 h): 3260 nM; Papp A→B at 1 h, 10 µM [7]: 60 ×10⁻⁶ cm/s
C[C@@H](Nc1nc(NCC(C)(C)O)nc(C2=CC(O)CCC2)n1)C(F)(F)F (mixture of isomers) | 2800 nM | 1200 nM | 
CC(C)Nc1nc(N[C@H](C)C(F)(F)F)nc(C2=CCCC(F)C2)n1 (mixture of isomers) |  | 120 nM | 
C[C@@H](Nc1nc(NC2CCCCC2)nc(C2=CC(O)CCC2)n1)C(F)(F)F (mixture of isomers) | 296 nM | 43 nM | 
C[C@@H](Nc1nc(N[C@H](C)C(F)(F)F)nc(C2=C(F)C(O)C3(CC2)CC3)n1)C(F)(F)F (mixture of isomers) | 707 nM | 222 nM | IC50 ([4]; Homo sapiens, U-87 MG, 72 h): 3230 nM
C[C@@H](Nc1nc(N[C@H](C)C(F)(F)F)nc(C2=C(F)C(O)C(F)(F)CC2)n1)C(F)(F)F (mixture of isomers) |  | 28 nM | Papp B→A at 1 h, 10 µM [3]: 25.1 ×10⁻⁶ cm/s; IC50 ([4]; u-87mg atcc): 210 nM; remaining at 0.5 h, 1 µM [5]: 95.2%; IC50 ([1]; u-87mg atcc): 94 nM; remaining at 0.5 h, 1 µM [6]: 102%; Papp A→B at 1 h, 10 µM [7]: 50.4 ×10⁻⁶ cm/s
CC(C)Nc1nc(N[C@H](C)C(F)(F)F)nc(C2=CCCC(O)C2)n1 (mixture of isomers) |  | 1780 nM | 

SMILES | IC50 ([1]; Homo sapiens, U-87 MG, 72 h) | IC50 [2] | other results
C[C@@H](Nc1nc(NC2CC2)nc(C2=CC(O)CCC2)n1)C(F)(F)F (mixture of isomers) | 171 nM | 257 nM | 
C[C@@H](Nc1nc(NC(C)(C)C)nc(C2=CC(O)CCC2)n1)C(F)(F)F (mixture of isomers) | 319 nM | 111 nM | 
CC(C)Nc1nc(N[C@H](C)C(F)(F)F)nc(C2=CC(O)CCC2)n1 (mixture of isomers) | 137 nM | 41 nM | Papp B→A at 1 h, 10 µM [3]: 34.6 ×10⁻⁶ cm/s; IC50 ([4]; Homo sapiens, U-87 MG, 72 h): 658 nM; remaining at 0.5 h, 1 µM [5]: 44.1%; remaining at 0.5 h, 1 µM [6]: 74.1%; Papp A→B at 1 h, 10 µM [7]: 53.3 ×10⁻⁶ cm/s
C[C@@H](Nc1nc(N[C@H](C)C(F)(F)F)nc(C2=CC(O)CCC2)n1)C(F)(F)F (mixture of isomers) | 86 nM | 35 nM | Papp B→A at 1 h, 10 µM [3]: 28.6 ×10⁻⁶ cm/s; IC50 ([4]; Homo sapiens, U-87 MG, 72 h): 434 nM; remaining at 0.5 h, 1 µM [5]: 58.2%; remaining at 0.5 h, 1 µM [6]: 79.8%; Papp A→B at 1 h, 10 µM [7]: 44.9 ×10⁻⁶ cm/s
CC(C)Nc1nc(N[C@H](C)C(F)(F)F)nc(C2=CC(O)CC2)n1 (mixture of isomers) | 1670 nM | 85 nM | 
C[C@@H](Nc1nc(N[C@H](C)C(F)(F)F)nc(C2=C(F)C(O)CCC2)n1)C(F)(F)F (mixture of isomers) | 137 nM | 54 nM | Papp B→A at 1 h, 10 µM [3]: 15.5 ×10⁻⁶ cm/s; IC50 ([4]; Homo sapiens, U-87 MG, 72 h): 365 nM; remaining at 0.5 h, 1 µM [5]: 83.8%; remaining at 0.5 h, 1 µM [6]: 99%; Papp A→B at 1 h, 10 µM [7]: 68.6 ×10⁻⁶ cm/s
CC(C)Nc1nc(N[C@H](C)C(F)(F)F)nc(C2=CC(F)CCC2)n1 (mixture of isomers) | 181 nM | 43 nM | Papp B→A at 1 h, 10 µM [3]: 5.2 ×10⁻⁶ cm/s; remaining at 0.5 h, 1 µM [5]: 16.8%; remaining at 0.5 h, 1 µM [6]: 25.1%; Papp A→B at 1 h, 10 µM [7]: 5.1 ×10⁻⁶ cm/s
CC(C)Nc1nc(N[C@H](C)C(F)(F)F)nc(C2=CCC(F)CC2)n1 (mixture of isomers) |  | 162 nM | 
CC(C)Nc1nc(N[C@H](C)C(F)(F)F)nc(C(C)c2ccccc2)n1 (mixture of isomers) |  | 337 nM | 
CC(C)Nc1nc(N[C@H](C)C(F)(F)F)nc(C2=CCC(O)CC2)n1 (mixture of isomers) |  | > 3000 nM | 
CC(C)C(=O)Nc1nc(N[C@H](C)C(F)(F)F)nc(C2=CC(O)CCC2)n1 (mixture of isomers) | 1540 nM | 262 nM | 
CC(C)CNc1nc(N[C@H](C)C(F)(F)F)nc(C2=CC(O)CCC2)n1 (mixture of isomers) | 100 nM | 21 nM | IC50 ([4]; Homo sapiens, U-87 MG, 72 h): 2470 nM
CCCNc1nc(N[C@H](C)C(F)(F)F)nc(C2=CC(O)CCC2)n1 (mixture of isomers) | 174 nM | 35 nM | 
C[C@H](Nc1nc(N[C@@H](C)C(F)(F)F)nc(C2=C(F)C(O)C(F)(F)CC2)n1)C(F)(F)F (mixture of isomers) | 174 nM | 309 nM | IC50 ([4]; Homo sapiens, U-87 MG, 72 h): 1320 nM
C[C@@H](Nc1nc(NC2CCCC2)nc(C2=CC(O)CCC2)n1)C(F)(F)F (mixture of isomers) | 67 nM | 33 nM | Papp B→A at 1 h, 10 µM [3]: 13.6 ×10⁻⁶ cm/s; IC50 ([4]; Homo sapiens, U-87 MG, 72 h): 733 nM; Papp A→B at 1 h, 10 µM [7]: 30.9 ×10⁻⁶ cm/s
C[C@@H](Nc1nc(NC2CCC2)nc(C2=CC(O)CCC2)n1)C(F)(F)F (mixture of isomers) | 92 nM | 39 nM | Papp B→A at 1 h, 10 µM [3]: 27.5 ×10⁻⁶ cm/s; remaining at 0.5 h, 1 µM [5]: 15.9%; remaining at 0.5 h, 1 µM [6]: 34%; Papp A→B at 1 h, 10 µM [7]: 41.4 ×10⁻⁶ cm/s
CCNc1nc(N[C@H](C)C(F)(F)F)nc(C2=CC(O)CCC2)n1 (mixture of isomers) | 336 nM | 68 nM | 
COCCNc1nc(N[C@H](C)C(F)(F)F)nc(C2=CC(O)CCC2)n1 (mixture of isomers) |  | > 3000 nM | 
C[C@@H](Nc1nc(N[C@H](C)C(F)(F)F)nc(C2=C(F)C(O)C(F)(F)CC2)n1)C(F)(F)F (stereo in doubt; 42) |  | 145 nM | IC50 ([4]; u-87mg atcc): 1890 nM; IC50 ([1]; u-87mg atcc): 845 nM
